ChEMBL document CHEMBL1159147, “4-(2-PYRTOYL)-5-phenylthiazoles as novel non-bicyclic reversible inhibitors of the gastric H+/K+-atpase” (Bioorg Med Chem Lett, 1995)

Tests used:
[1] = molecular target: Potassium-transporting ATPase alpha chain 1 (Sus scrofa) (UniProt P19156); experiment: Ability to inhibit H+/K+ stimulated ATPase activity in lympholised gastric vesicles at 100 uM concentration; assay type: tissue-based; conditions: Stomach
[2] = tested on: Rattus norvegicus; experiment: Compound was tested in vivo for its ability to inhibit pentagastrin-stimulated gastric acid secretion in the anesthetized lumen perfused rat at 10 umol/kg iv; insoluble; assay type: functional, organism-based; conditions: Stomach
[3] = tested on: CCCc1nc(-c2cc(N)ccn2)c(-c2ccccc2C)s1; experiment: Vmax was determined
[4] = tested on: CCCc1nc(-c2cc(N)ccn2)c(-c2ccccc2C)s1; experiment: Km was determined
[5] = molecular target: Potassium-transporting ATPase alpha chain 1 (Sus scrofa) (UniProt P19156); experiment: Ability to inhibit H+/K+ stimulated ATPase activity in lympholised gastric vesicles at 30 uM concentration; assay type: tissue-based; conditions: Stomach

Potassium-transporting ATPase alpha chain 1 (Sus scrofa), sequence (P19156 whole entry, the tested form may be a part): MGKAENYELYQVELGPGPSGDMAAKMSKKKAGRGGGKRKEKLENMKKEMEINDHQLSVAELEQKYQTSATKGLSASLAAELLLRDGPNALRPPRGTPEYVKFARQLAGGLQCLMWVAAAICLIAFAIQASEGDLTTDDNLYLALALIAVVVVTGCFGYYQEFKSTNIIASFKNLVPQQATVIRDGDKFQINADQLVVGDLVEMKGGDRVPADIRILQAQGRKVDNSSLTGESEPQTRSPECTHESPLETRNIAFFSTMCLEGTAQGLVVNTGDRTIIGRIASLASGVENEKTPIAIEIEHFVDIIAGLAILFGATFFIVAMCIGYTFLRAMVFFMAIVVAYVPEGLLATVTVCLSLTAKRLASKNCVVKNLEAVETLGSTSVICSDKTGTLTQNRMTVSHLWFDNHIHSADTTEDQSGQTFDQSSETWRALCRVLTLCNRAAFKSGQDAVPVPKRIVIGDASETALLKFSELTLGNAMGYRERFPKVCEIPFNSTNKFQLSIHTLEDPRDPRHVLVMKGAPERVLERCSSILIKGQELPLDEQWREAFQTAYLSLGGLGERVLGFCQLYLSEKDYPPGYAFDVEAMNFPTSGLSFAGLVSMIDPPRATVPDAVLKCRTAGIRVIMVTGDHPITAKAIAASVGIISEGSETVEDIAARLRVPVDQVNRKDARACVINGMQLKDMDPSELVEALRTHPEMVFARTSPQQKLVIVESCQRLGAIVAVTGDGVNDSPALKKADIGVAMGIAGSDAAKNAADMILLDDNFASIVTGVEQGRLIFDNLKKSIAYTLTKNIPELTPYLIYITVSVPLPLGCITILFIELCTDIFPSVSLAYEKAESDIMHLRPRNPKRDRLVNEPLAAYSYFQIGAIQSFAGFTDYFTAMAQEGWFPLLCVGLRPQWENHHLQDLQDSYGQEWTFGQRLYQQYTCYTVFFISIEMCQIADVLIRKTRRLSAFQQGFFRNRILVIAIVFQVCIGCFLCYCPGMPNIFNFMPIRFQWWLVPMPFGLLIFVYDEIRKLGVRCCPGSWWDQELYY
Potassium-transporting ATPase alpha chain 1 (Sus scrofa), P19156, sequence (P19156 whole entry): as the sequence (P19156 whole entry, the tested form may be a part) above

Q: With `CCCc1nc(-c2ccccc2C)c(-c2ccccn2)[nH]1` as the compound, how does the inhibition [1] read?
A: Its inhibition is 67%.

Q: Which inhibition [2] does the source give for `Cc1ccccc1-c1nc(-c2ccccn2)c(-c2ccccc2C)s1` here?
A: The inhibition was “Insoluble”.

Q: With `Cc1nc(-c2ccccn2)c(-c2ccccc2C)s1` as the compound, how does the inhibition [1] read?
A: Its inhibition is 48%.

Q: What does the source list for “Potassium-transporting ATPase alpha chain 1 (Sus scrofa), P19156”?
A: Vmax [3]: 0.636 IU mg-1; Km [4]: 560 µM

Q: With `CCCc1ncc(-c2ccccc2C)c(-c2ccccn2)n1` as the compound, how does the inhibition [5] read?
A: The inhibition was 23%.
